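48-hour exposure; five concentrations; linearly interpolated endpoints. Here, GI50 denotes the concentration required for 50% inhibition of growth. TGI marks complete inhibition of growth.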
Experiments:
Assay in all cases: growth of human tumour cells (NCI), 48 h
786-0 renal = test system: 786-0 renal
OVCAR-4 ovarian = test system: OVCAR-4 ovarian
SR leukemia = test system: SR leukemia
MCF7 breast = test system: MCF7 breast
NCI-H522 lung = test system: NCI-H522 lung
U251 CNS = test system: U251 CNS
IGROV1 ovarian = test system: IGROV1 ovarian
MDA-MB-231 breast = test system: MDA-MB-231 breast
ACHN renal = test system: ACHN renal
SN12C renal = test system: SN12C renal
T-47D breast = test system: T-47D breast
HOP-92 NSCLC = test system: HOP-92 NSCLC
MALME-3M melanoma = test system: MALME-3M melanoma
UACC-62 melanoma = test system: UACC-62 melanoma
HL-60(TB) leukemia = test system: HL-60(TB) leukemia

Row | Structure (SMILES) | TGI (786-0 renal) | TGI (OVCAR-4 ovarian) | TGI (SR leukemia) | TGI (MCF7 breast) | TGI (NCI-H522 lung) | TGI (U251 CNS) | TGI (IGROV1 ovarian) | TGI (MDA-MB-231 breast) | TGI (ACHN renal) | TGI (SN12C renal) | TGI (T-47D breast) | TGI (HOP-92 NSCLC) | TGI (MALME-3M melanoma) | TGI (UACC-62 melanoma) | TGI (HL-60(TB) leukemia) | GI50 (SN12C renal) | GI50 (UACC-62 melanoma)
1 | CCC1c2[nH]c3ccccc3c2C[C@H]2C(=O)NC(Cc3ccccc3)C(=O)N12 (stereo partly drawn) | > 100 µM | > 100 µM | 53.8 µM | > 100 µM | 46.6 µM | 56.3 µM | 74.7 µM | 46.2 µM | > 100 µM | 79.9 µM | 73.1 µM | 72.8 µM | 43.1 µM | 38.8 µM | 47.8 µM |  | 
2 | Cc1ccc(NC(=O)c2cc(S(=O)(=O)N3CCNNC3=O)c(S)cc2Cl)cc1 | > 100 µM | > 100 µM | > 100 µM | > 100 µM | > 100 µM | > 100 µM | > 100 µM | > 100 µM | > 100 µM | > 100 µM | > 100 µM | > 100 µM | > 100 µM | > 100 µM | > 100 µM |  | 
3 | COc1ccc(N=C/C=C/C(=C/COC(C)=O)OC(C)=O)cc1 | 90 µM | 93.8 µM | > 100 µM | > 100 µM | 30.4 µM | 72.3 µM | 45.1 µM | 65.3 µM | 34.4 µM | 74.9 µM | > 100 µM | 57.4 µM | 69.5 µM | > 100 µM | 98.5 µM |  | 
4 | CSC(=S)Nc1cc(C)ccn1 | > 100 µM | > 100 µM | > 100 µM | > 100 µM | > 100 µM | > 100 µM | 58 µM | 88.8 µM | > 100 µM | > 100 µM | > 100 µM | > 100 µM | > 100 µM | > 100 µM | > 100 µM |  | 
5 | C=C1C(=O)OC2C3C(=C)[C@@H](OC(C)=O)CC3C(C)=CC(OC(=O)C(C)(O)C(C)OC(C)=O)[C@@H]12 (stereo partly drawn) | 24.2 µM | 23.3 µM | 68.9 µM | 22.9 µM | 3.21 µM | 30.5 µM | 21.3 µM | 34.1 µM | 24.8 µM | 27.8 µM | 39 µM |  | 20.2 µM | 25.8 µM | 5.57 µM |  | 
6 | COC(=O)[C@H]1[C@H](OC(=O)[C@@H](OC)c2ccccc2)ON2CC[C@@H](OC(=O)c3ccccc3)[C@H]12 | > 100 µM | > 100 µM | > 100 µM | 22 µM | 7.59 µM | > 100 µM | > 100 µM | > 100 µM | 25.6 µM | > 100 µM | > 100 µM | 66 µM | > 100 µM | 28 µM | > 100 µM |  | 
7 | COc1ccc2[nH]c3c(c2c1)CCc1ccccc1-3 | > 100 µM | > 100 µM | > 100 µM | > 100 µM | 79.7 µM | > 100 µM | > 100 µM | 76.1 µM | > 100 µM | > 100 µM | > 100 µM | > 100 µM | > 100 µM | > 100 µM |  |  | 
8 | c1ccc2c(c1)SCCCSCCCS2 | > 100 µM | > 100 µM | > 100 µM | > 100 µM | > 100 µM | > 100 µM | > 100 µM | > 100 µM |  | > 100 µM | > 100 µM | > 100 µM |  | > 100 µM | 74.5 µM |  | 
9 | CC(=O)N(CCc1ccccc1)C(C)(C#N)c1ccccc1 (stereo not drawn) | > 100 µM | > 100 µM | > 100 µM | > 100 µM | > 100 µM | > 100 µM | > 100 µM | > 100 µM | > 100 µM | > 100 µM | > 100 µM | > 100 µM | > 100 µM | > 100 µM | > 100 µM |  | 
10 | C[N+](C)(C)C(Cc1c[nH]c(=S)[nH]1)C(=O)O (stereo not drawn) | > 100 µM | > 100 µM | > 100 µM | > 100 µM | > 100 µM | > 100 µM | > 100 µM | > 100 µM | > 100 µM | > 100 µM | > 100 µM | > 100 µM | > 100 µM | > 100 µM | > 100 µM |  | 
11 | COc1ccc(OC)c(CC(=O)c2ccc(O)c(C(=O)NCCc3ccc(F)cc3)c2)c1 | 24.5 µM | 31 µM | 10 µM | 24.6 µM | 11.2 µM | 13.7 µM | 18.1 µM | 20.4 µM | 56.9 µM | 19.4 µM | 8.44 µM | 41.4 µM | 6.9 µM | 21.6 µM | 7.29 µM | 4.26 µM | 4.01 µM
12 | O=C1C(c2c(O)n(-c3ccccc3)c3ccccc23)=Nc2ccccc21 | 36.7 µM | > 100 µM | > 100 µM | 37 µM | > 100 µM | > 100 µM | > 100 µM | 81.5 µM | 79.5 µM | > 100 µM | 71.9 µM | 84.9 µM | > 100 µM | > 100 µM |  |  | 
13 | CC(=O)NC1C(OCc2ccccc2)OC(CO)C(O)C1OCC(=O)NC(C)C(=O)NC(CCC(=O)Nc1ccc2c(c1)CN1C(=O)c3ccccc3C1=N2)C(N)=O (stereo not drawn) | > 100 µM | > 100 µM | > 100 µM | > 100 µM |  | > 100 µM | > 100 µM | > 100 µM | > 100 µM | > 100 µM | > 100 µM | > 100 µM | > 100 µM | > 100 µM | > 100 µM |  | 
14 | N#Cc1c(-c2ccccc2)cc(Nc2ccc(F)cc2)n2c1nc1ccccc12 | 10 µM | > 100 µM | > 100 µM | 5.97 µM | 5.83 µM | 8.11 µM | > 100 µM | 65.2 µM | 10.6 µM | 6.1 µM | 19 µM |  | > 28.4 µM | 14.8 µM | > 100 µM |  | 
15 | Nc1nc(SCC(=O)c2ccccc2)nc2nc3c(c(-c4ccccc4)c12)CCCC3 | 56.1 µM | 66.4 µM | > 100 µM | > 100 µM | > 100 µM | > 100 µM |  | > 100 µM | > 100 µM | > 100 µM | > 100 µM |  | > 100 µM | > 100 µM | > 100 µM |  | 

Source: PubChem BioAssay (NCI)
